Consider three compounds from patent US20040180862A1, “Compositions and methods for inhibiting bone resorption” (priority 2001, published 2004).

“Also recorded” adds a separate entry of the source. Like-named read-outs stand apart in the source and are kept apart here.

Series [1] has as its system Ch1.Es esophageal fibroblasts. As to the kind of experiment: Apoptosis in Ch1.Es cells (cell rounding and detachment from the dish). The note with it: for induction of apoptosis: bisphosphonate 300 μM, 24 hours; for suppression of ALN-induced apoptosis in absence of lipoprotein / suppression of RIS-induced apoptosis in absence of lipoprotein: FIG. 3: LPDS, Zara-A 10 μM; for suppression of ALN-induced apoptosis in absence of lipoprotein: ALN 300 μM 24 hours; for suppression of RIS-induced apoptosis in absence of lipoprotein: RIS 300 μM 24 hours. Type of series: cell-based. As for the experimental part: Apoptosis is observed as cell rounding and detachment from the dish.
Ch1.Es cells were grown for 24 hours in either fetal bovine serum (FBS) (top panels) or lipoprotein-deficient […] (LPDS) in the absence (middle) or presence (bottom) of Zara-A (10 μM). […] (300 μM). Phenotypes were scored as in FIG. 2. The suppression of apoptosis is near complete after inclusion of Zara-A.

The test system of series [2] is Ch1.Es esophageal fibroblasts. The series is described as follows: Protein isoprenylation in Ch1.Es fibroblasts (immunoblot with anti-hDNAJ and anti-Rap1A markers). It is filed as cell-based. As for the experimental part:
Cells were treated for 24 hours and protein lysates were analyzed for suppression of protein isoprenylation. Markers included either anti-hDNAJ, a farnesylated protein that migrates more slowly when farnesylation is absent (two bands observed) or anti-Rap1A, which we have shown previously to bind preferentially to Rap1A if isoprenylation is blocked (presence of a band indicates absence of protein geranylgeranylation) (See Reszka, A. A., Halasy-Nagy, J. and Rodan, G. A. Molecular Pharmacology 59:193-202, 2001).
(A) Cells pretreated for 24 hours with nothing or the squalene synthase inhibitor, zaragozic Acid A (Zara-A) at 3 μM (three lanes indicated).
Cells were treated for 24 hours and protein lysates were analyzed for suppression of protein isoprenylation. Markers included either anti-hDNAJ, a farnesylated protein that migrates more slowly when farnesylation is absent (two bands observed) or anti-Rap1A, which we have shown previously to bind preferentially to Rap1A if isoprenylation is blocked (presence of a band indicates absence of protein geranylgeranylation. See FIG. 1.
(A) Cells pretreated for 24 hours with nothing or the squalene synthase inhibitor, Zaragozic Acid A (Zara-A) at 3 μM (three lanes indicated).
For orientation: A western blot detects proteins with antibodies after separation by electrophoresis.

Series [3] has as its system Ch1.Es esophageal fibroblasts. The series is described as follows: Activation of pro-apoptotic kinases (in-gel kinase assay, phospho-specific immunoblotting). It is filed as cell-based. The note with it: 300 μM, 24 hours. As for the experimental part:
Cell lysates were analyzed using an in-gel kinase assay (top) or by immuno-blotting with anti-phospho-specific antibodies recognizing active MAP kinases (Erk1 and 2), p38, or Jun N-terminal kinase (Jnk).

In series [4] the test system is skin. The series is described as follows: Skin irritation after subcutaneous injection, histology (hematoxylin and eosin, affected area). Type of series: in vivo, Rats. The note with it: 5 days.
Method: Skin was harvested after necropsy, fixed with formalin, thin-sectioned and stained with hematoxylin and eosin. Area was determined by measuring the thickness and length of each affected area and is represented vs. the H2O control.
The test system of series [5] is skin. The note with it: subcutaneous, 5 days; for effect of coadministered Zara-A on ALN-induced skin irritation / thickening: ALN 0.5 mg/kg with Zara-A 3 μg/kg; for effect of coadministered Zara-A on ALN-induced skin irritation / thickening / effect of coadministered Zara-A on RIS-induced skin irritation / thickening: P≦0.01; for effect of coadministered Zara-A on RIS-induced skin irritation / thickening: RIS 0.5 mg/kg with Zara-A 3 μg/kg.

Where [6] appears, read: ALN 300 μM, 24 hours, absence of Zara-A.
[7] abbreviates: listed as squalene synthase inhibitor.
Where [8] appears, read: Zara-A 0.1-10 μM pretreated 24 hours, then ALN 300 μM 24 hours.

For `NCCCC(O)(P(=O)(O)O)P(=O)(O)O` [ALN, 4-amino-1-hydroxybutylidene-1,1-bisphosphonic acid monosodium trihydrate], the induction of apoptosis result in series [1] was “induced”. In series [2] (setting [6]), the “inhibition of Rap1A geranylgeranylation” value is recorded as “strongly inhibits” and the “inhibition of hDNAJ farnesylation” value is on record as “strongly inhibits”. The “activation of pro-apoptotic kinases” value in series [3] is reported as “activate”.

Turning to `O=P(O)(O)C(O)(Cc1cccnc1)P(=O)(O)O` [RIS, 1-hydroxy-2-(3-pyridinyl)-ethylidene-1,1-bisphosphonic acid], the skin irritation result in the series on skin [4] (0.5 mg/kg) is “Skin irritation induced”. Further, the induction of apoptosis entry in series [1] is given as “induced”. The “activation of pro-apoptotic kinases” value in series [3] is “activate”. In the series with skin [5] (0.5 mg/kg, vehicle control 50-100), the “volume of affected skin area” value was 240 mm^3.

Consider `C=C(CC[C@]12O[C@H](C(=O)O)[C@@](O)(C(=O)O)[C@](C(=O)O)(O1)[C@H](OC(=O)/C=C/[C@@H](C)C[C@@H](C)CC)[C@H]2O)[C@@H](OC(C)=O)[C@H](C)Cc1ccccc1` [Zara-A, zaragozic Acid A], for which, in the series on skin [4] (FIG. 6: ALN 0.5 mg/kg with Zara-A 3 μg/kg), the “suppression of ALN-induced skin irritation” value is “suppresses”. In addition, in series [1] (FIG. 2: Zara-A 24 hours, then ALN 300 μM 24 hours), the “suppression of ALN-induced apoptosis” value is reported as “suppression”. In series [1], the “suppression of ALN-induced apoptosis in absence of lipoprotein” value is listed as “near complete” and the “suppression of RIS-induced apoptosis in absence of lipoprotein” value is on record as “near complete”. For the same compound, in series [1] (setting [7]), the “suppression of ALN-induced apoptosis in absence of lipoprotein” value was “maximally suppresses” and the “suppression of RIS-induced apoptosis in absence of lipoprotein” value was “maximally suppresses”. In addition, the “effect of Zara-A pretreatment on ALN inhibition of Rap1A geranylgeranylation” value in series [2] (Zara-A 3 μM pretreated 24 hours, then ALN 300 μM 24 hours) was “reduced; also recorded: diminished”. Besides, in series [2] (setting [8]), the “effect of Zara-A on capacity of ALN to inhibit Rap1A geranylgeranylation” value is given as “dose-dependently reduces; also recorded: dose-dependently diminished” and the “effect of Zara-A on capacity of ALN to inhibit hDNAJ farnesylation” value is listed as “dose-dependently reduces; also recorded: dose-dependently diminished”. In the series with skin [5], the “effect of coadministered Zara-A on ALN-induced skin irritation / thickening” value is “significantly reduced” and the “effect of coadministered Zara-A on RIS-induced skin irritation / thickening” value is given as “significantly reduced”. For the same compound, in the series on skin [5] (setting [7]), the “effect of coadministered Zara-A on ALN-induced skin irritation / thickening” value is recorded as “suppresses” and the “effect of coadministered Zara-A on RIS-induced skin irritation / thickening” value was “suppresses”.
